From patent US20060252807A1, “Novel ortho-terphenyl inhibitors of p38 kinase and methods of treating inflammatory disorders” (Kalypsys, Inc., priority 2005, published 2006)

What follows are compounds tested against T1, active p38 alpha enzyme (Upstate Biotechnology) (Homo sapiens, UniProt Q16539) (assay: p38α biochemical assay (ATP turnover, luminescent detection, Cambrex PKlight)). Details: p38α biochemical assay, Table 1 Biological Activity.
T1 construct: purchased Upstate Biotechnology
Outline: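 Active human p38α was incubated with full-length MapkapK2 protein as substrate and 1.4 uM ATP (final) for 2 hours at 30C. Buffer: 200 mM Tris, 100 mM MgCl2, 1.5 mM EGTA, 4 mM CaCl2, 20 mM MOPS, 1 mM EDTA, 1% glycerol, 0.1% β-mercaptoethanol, 1 mg/ml BSA. Total ATP turnover read by luminescence.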

T1 sequence (Q16539 whole entry): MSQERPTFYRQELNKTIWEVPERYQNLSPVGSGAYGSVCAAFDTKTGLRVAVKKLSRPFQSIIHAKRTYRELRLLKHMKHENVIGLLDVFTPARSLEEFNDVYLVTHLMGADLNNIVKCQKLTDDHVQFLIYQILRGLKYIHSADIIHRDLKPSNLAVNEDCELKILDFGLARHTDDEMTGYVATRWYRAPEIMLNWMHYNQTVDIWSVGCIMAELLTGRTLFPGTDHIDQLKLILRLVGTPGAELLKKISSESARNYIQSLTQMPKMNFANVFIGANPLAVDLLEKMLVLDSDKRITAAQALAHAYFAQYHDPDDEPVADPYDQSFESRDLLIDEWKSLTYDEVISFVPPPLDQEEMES

`CC(C)NC(=O)c1csc(-c2oc(CNC(=O)c3ccc(C(C)(C)C)cc3)nc2-c2ccc(F)cc2)n1` [Example 209] and `COc1ccc(C(=O)NCc2nc(-c3ccc(F)cc3)c(-c3nc(C(=O)NC(C)C)cs3)o2)cc1` [Example 141] cannot be ordered by IC50: greater than 1000 nM for the first, greater than 1000 nM for the second.

`CC(C)NC(=O)c1csc(-c2oc(CN)nc2-c2ccc(F)cc2)n1` [Example 98] and `CC(C)NC(=O)c1csc(-c2oc(CNC(=O)C(C)(C)C)nc2-c2ccc(F)cc2)n1` [Example 103] cannot be ordered by IC50: greater than 1000 nM for the first, no more than 1000 nM for the second.

`C#CCNC(=O)c1csc(-c2c(-c3ccc(F)cc3)n[nH]c2C2CCNCC2)n1` [Example 65, 2-|3-(4-Fluoro-phenyl)-5-piperidin-4-yl-1H-pyrazol-4-yl|-thiazole-4-carboxylic acid prop-2-ynylamide] and `CC(C)NC(=O)c1csc(-c2[nH]c(CN(C)C)nc2-c2ccc(F)cc2)n1` [Example 81, 2-|2-Dimethylaminomethyl-5-(4-fluoro-phenyl)-3H-imidazol-4-yl|-thiazole-4-carboxylic acid isopropylamide] cannot be ordered by IC50: no more than 1000 nM for the first, no more than 1000 nM for the second.

`CC(C)NC(=O)c1csc(-c2oc(CN3CCN(C(=O)c4ccccc4O)CC3)nc2-c2ccc(F)cc2)n1` [Example 362] and `Cc1cc(C(=O)N2CCN(Cc3nc(-c4ccc(F)cc4)c(-c4nc(C(=O)NC(C)C)cs4)o3)CC2)ccc1Br` [Example 529] cannot be ordered by IC50: no more than 1000 nM for the first, greater than 1000 nM for the second.

`Cc1cc(C(=O)NCc2onc(-c3ccc(F)cc3)c2-c2nc(C(=O)NC(C)C)cs2)n[nH]1` [Example 591] and `CC(C)NC(=O)c1csc(-c2c(-c3ccc(F)cc3)noc2CNC(=O)Cc2ccccc2O)n1` [Example 618] cannot be ordered by IC50: greater than 1000 nM for the first, greater than 1000 nM for the second.

`CC(=O)NC(Cc1ccc(O)cc1)C(=O)N1CCN(Cc2nc(-c3ccc(F)cc3)c(-c3nc(C(=O)NC(C)C)cs3)o2)CC1` (stereo not drawn) [Example 542] and `COc1ccc(C(=O)N2CCN(Cc3nc(-c4ccc(F)cc4)c(-c4nc(C(=O)NC(C)C)cs4)o3)CC2)c(OC)c1` [Example 462] cannot be ordered by IC50: greater than 1000 nM for the first, no more than 1000 nM for the second.

`CC(C)NC(=O)c1csc(-c2oc(CNC(=O)/C=C/c3ccc(Cl)cc3)nc2-c2ccc(F)cc2)n1` [Example 230] and `CC(C)NC(=O)c1csc(-c2oc(CNC(=O)c3cc(Cl)ccc3Cl)nc2-c2ccc(F)cc2)n1` [Example 253] cannot be ordered by IC50: no more than 1000 nM for the first, no more than 1000 nM for the second.

`CCCCCc1ccc(C(=O)NCc2nc(-c3ccc(F)cc3)c(-c3nc(C(=O)NC(C)C)cs3)o2)cc1` [Example 257] and `CC(C)NC(=O)c1csc(-c2c(-c3ccc(F)cc3)noc2CNC(=O)C2CCCCN2C(=O)OC(C)(C)C)n1` (stereo not drawn) [Example 786] cannot be ordered by IC50: greater than 1000 nM for the first, greater than 1000 nM for the second.

Compound `Cc1onc(-c2ccc(Cl)cc2)c1-c1ccn(C(=O)NC2CCCC2)n1` [Example 9, 3-|3-(4-Chloro-phenyl)-5-methyl-isoxazol-4-yl|-pyrazole-1-carboxylic acid cyclopentylamide] has an IC50 of no more than 1000 nM.

Same assay, conditions: p38α kinase; Table 1 Biological Activity

`CC(C)NC(=O)c1csc(-c2c(-c3ccc(F)cc3)n[nH]c2C2CCN(C(=O)Cc3ccc(O)c(F)c3)CC2)n1` [Example 905] and `CC(C)NC(=O)c1csc(-c2c(-c3ccc(F)cc3)n[nH]c2C2CCN(C(=O)c3cc(O)ccc3O)CC2)n1` [Example 860] cannot be ordered by IC50: greater than 1000 nM for the first, greater than 1000 nM for the second.

`CC(C)NC(=O)c1csc(-c2oc(CNc3ccc(C(F)(F)F)cc3)nc2-c2ccc(F)cc2)n1` [Example 1355] and `COCC(C)NCc1nc(-c2ccc(F)cc2)c(-c2nc(C(=O)NC(C)C)cs2)o1` (stereo not drawn) [Example 1072] cannot be ordered by IC50: greater than 1000 nM for the first, greater than 1000 nM for the second.

`COc1ccc(C(=O)N2CCC(c3[nH]nc(-c4ccc(F)cc4)c3-c3nc(C(=O)NC(C)C)cs3)CC2)cc1O` [Example 903] and `CC(C)NC(=O)c1csc(-c2c(-c3ccc(F)cc3)n[nH]c2C2CCN(C(=O)c3cccc(Br)c3)CC2)n1` [Example 982] cannot be ordered by IC50: greater than 1000 nM for the first, greater than 1000 nM for the second.

`CCC(=O)C(=O)N1CCC(c2[nH]nc(-c3ccc(F)cc3)c2-c2nc(C(=O)NC(C)C)cs2)CC1` [Example 816] and `COCC(=O)N1CCC(c2[nH]nc(-c3ccc(F)cc3)c2-c2nc(C(=O)NC(C)C)cs2)CC1` [Example 2173, 2-{3-(4-Fluoro-phenyl)-5-|1-(2-methoxy-acetyl)-piperidin-4-yl|-1H-pyrazol-4-yl}-thiazole-4-carboxylic acid isopropylamide] cannot be ordered by IC50: greater than 1000 nM for the first, no more than 1000 nM for the second.

`CN(C)c1ccc(CNC(=O)c2csc(-c3c(-c4ccc(F)cc4)n[nH]c3C3CCNCC3)n2)cc1` [Example 2149] and `O=C(NCc1ccc(F)c(Cl)c1)c1csc(-c2c(-c3ccc(F)cc3)n[nH]c2C2CCNCC2)n1` [Example 2131] cannot be ordered by IC50: greater than 1000 nM for the first, greater than 1000 nM for the second.

`CC1CCC(NCc2onc(-c3ccc(F)cc3)c2-c2nc(C(=O)NC(C)C)cs2)CC1` (stereo not drawn) [Example 1420] and `CC(C)NC(=O)c1csc(-c2c(-c3ccc(F)cc3)noc2CNC2CCC2)n1` [Example 1391] cannot be ordered by IC50: greater than 1000 nM for the first, greater than 1000 nM for the second.

`CCC(CO)NC(=O)c1csc(-c2sc(C)nc2-c2ccc(F)cc2)n1` (stereo not drawn) [Example 1729] and `Cc1nc(-c2ccc(F)cc2)c(-c2nc(C(=O)N3CCC[C@@H]3CO)cs2)s1` [Example 1851] cannot be ordered by IC50: no more than 1000 nM for the first, greater than 1000 nM for the second.

`COc1ccc(CNCc2onc(-c3ccc(F)cc3)c2-c2nc(C(=O)NC(C)C)cs2)cc1O` [Example 1500] and `CCOc1ccccc1NCc1onc(-c2ccc(F)cc2)c1-c1nc(C(=O)NC(C)C)cs1` [Example 1665] cannot be ordered by IC50: greater than 1000 nM for the first, greater than 1000 nM for the second.

`CC(C)NC(=O)c1csc(-c2c(-c3ccc(F)cc3)noc2CNC(=O)c2ccccc2C(=O)c2ccc(O)cc2)n1` [Example 797] and `Cc1c(F)cccc1NCc1onc(-c2ccc(F)cc2)c1-c1nc(C(=O)NC(C)C)cs1` [Example 1652] cannot be ordered by IC50: greater than 1000 nM for the first, greater than 1000 nM for the second.

`COc1cc(CNCc2nc(-c3ccc(F)cc3)c(-c3nc(C(=O)NC(C)C)cs3)o2)cc(OC)c1` [Example 1161] and `COc1ccc(N2CCN(Cc3nc(-c4ccc(F)cc4)c(-c4nc(C(=O)NC(C)C)cs4)o3)CC2)cc1OC` [Example 1302] cannot be ordered by IC50: greater than 1000 nM for the first, greater than 1000 nM for the second.

`COc1ccccc1CCNC(=O)c1csc(-c2sc(C)nc2-c2ccc(F)cc2)n1` [Example 1800] and `COc1ccc(-c2ccccc2)cc1NC(=O)c1csc(-c2sc(C)nc2-c2ccc(F)cc2)n1` [Example 2020] cannot be ordered by IC50: no more than 1000 nM for the first, greater than 1000 nM for the second.

`Cc1nc(-c2ccc(F)cc2)c(-c2nc(C(=O)N3CCSCC3)cs2)s1` [Example 1854] and `Cc1nc(-c2ccc(F)cc2)c(-c2nc(C(=O)N3CC(C)OC(C)C3)cs2)s1` (stereo not drawn) [Example 1863] cannot be ordered by IC50: greater than 1000 nM for the first, greater than 1000 nM for the second.

`Cc1nc(-c2ccc(F)cc2)c(-c2nc(C(=O)N3CCN(c4cc(Cl)ccc4C)CC3)cs2)s1` [Example 1935] and `Cc1nc(-c2ccc(F)cc2)c(-c2nc(C(=O)N3CCN(c4ccc(F)cc4)CC3)cs2)s1` [Example 1905] cannot be ordered by IC50: greater than 1000 nM for the first, greater than 1000 nM for the second.

`CC(C)NC(=O)c1csc(-c2c(-c3ccc(F)cc3)n[nH]c2C2CCN(C(=O)c3cc(Cl)ccc3Cl)CC2)n1` [Example 967] and `COc1ccc2cc(C(C)C(=O)N3CCC(c4[nH]nc(-c5ccc(F)cc5)c4-c4nc(C(=O)NC(C)C)cs4)CC3)ccc2c1` (stereo not drawn) [Example 1027] cannot be ordered by IC50: greater than 1000 nM for the first, greater than 1000 nM for the second.

`CC(C)NC(=O)c1csc(-c2oc(CNC3CCN(Cc4ccccc4)CC3)nc2-c2ccc(F)cc2)n1` [Example 1174] and `CC(C)CCCC(C)NCc1onc(-c2ccc(F)cc2)c1-c1nc(C(=O)NC(C)C)cs1` (stereo not drawn) [Example 1440] cannot be ordered by IC50: greater than 1000 nM for the first, greater than 1000 nM for the second.

`Cc1nc(-c2ccc(F)cc2)c(-c2nc(C(=O)N3CCN(c4cccc(C(F)(F)F)c4)CC3)cs2)s1` [Example 1948] was tested, and the IC50 was greater than 1000 nM.
